# From patent US20240226225A1 (Protagonist Therapeutics, Inc., priority 2021, published 2024)
# Starred links: 1 amine or outer side, 2 acyl side, 3 side chain; linkers in the order of their positions; H or OH if unused. Positions of bridges follow the written chain, without caps; N, C: chain ends. Non-standard residues stand in square brackets, D forms with d. Residues, ends and D or L forms follow the SMILES beside them. Groups on a side chain read outwards from the residue. *: point of attachment. PEG12 = NCCOCCOCCOCCOCCOCCOCCOCCOCCOCCOCCOCCOCCC(=O)O; Ala(1H-tetrazol-5-yl) = N[C@@H](Cc1nnn[nH]1)C(=O)O; Phe(3,4-Cl2) = N[C@@H](Cc1ccc(Cl)c(Cl)c1)C(=O)O; Phe(2,4-Cl2) = N[C@@H](Cc1ccc(Cl)cc1Cl)C(=O)O; Phe(3,5-F2) = N[C@@H](Cc1cc(F)cc(F)c1)C(=O)O; C18 diacid = O=C(O)CCCCCCCCCCCCCCCCC(=O)*; Dip = N[C@H](C(=O)O)C(c1ccccc1)c1ccccc1; γGlu = O=C(O)[C@H](CCC(=O)[*:2])N[*:1]; Palmitoyl = CCCCCCCCCCCCCCCC(=O)*; β3hF = N[C@H](CC(=O)O)Cc1ccccc1; Isovaleryl = CC(C)CC(=O)*; AEEA = NCCOCCOCC(=O)O
# Target: T1, ferroportin (Homo sapiens, UniProt Q9NP59)
# T1 sequence (Q9NP59 1-571): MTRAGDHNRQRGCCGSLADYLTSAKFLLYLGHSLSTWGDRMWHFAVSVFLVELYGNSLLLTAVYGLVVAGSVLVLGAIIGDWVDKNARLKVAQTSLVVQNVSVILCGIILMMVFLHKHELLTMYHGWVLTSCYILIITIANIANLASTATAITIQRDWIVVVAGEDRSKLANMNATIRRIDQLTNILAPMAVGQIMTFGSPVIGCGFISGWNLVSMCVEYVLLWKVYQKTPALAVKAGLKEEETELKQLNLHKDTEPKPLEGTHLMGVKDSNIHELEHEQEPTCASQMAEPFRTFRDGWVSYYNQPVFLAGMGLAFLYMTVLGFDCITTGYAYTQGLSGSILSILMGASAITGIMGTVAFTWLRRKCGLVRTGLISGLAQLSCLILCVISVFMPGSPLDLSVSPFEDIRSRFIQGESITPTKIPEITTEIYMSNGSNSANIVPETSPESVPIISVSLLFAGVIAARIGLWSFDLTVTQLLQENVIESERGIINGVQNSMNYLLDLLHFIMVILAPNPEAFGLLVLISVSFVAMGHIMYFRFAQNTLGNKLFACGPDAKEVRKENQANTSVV
# Experiment: FPN activity assay: internalization/degradation of ferroportin-GFP in stably transfected HEK293 cells, decrease in GFP fluorescence
# Type: cell-based
# Design: expressed in transfected cells
# Conditions: HEK293 cells stably expressing ferroportin-GFP, at least 18 hours incubation; read-out: FPN EC50
row,DC50,SMILES
1,10 to 100 nM,"CCCCCCCCCCCCCCCC(=O)NCCOCCOCCOCCOCCOCCOCCOCCOCCOCCOCCOCCOCCC(=O)NCCCC[C@@H]1NC(=O)[C@H]([C@@H](C)CC)NC(=O)[C@@H](NC(=O)[C@@H]2CCCN2C(=O)[C@@H](NC(=O)[C@H](Cc2c[nH]cn2)NC(=O)[C@@H](NC(=O)[C@H](Cc2nn[nH]n2)NC(=O)CC(C)C)[C@@H](C)O)C(c2ccccc2)c2ccccc2)CSSC[C@@H](C(N)=O)NC(=O)[C@@H](CCCCN)NC(=O)C[C@H](Cc2ccccc2)NC1=O [Compd 1, Isovaleric Acid-[Tet1]-T-H-[Dpa]-P-[Cys]-I-[Lys(PEG12_Palm)]-[bhPhe]-[(D)Lys]-[Cys]-NH2] (Isovaleryl-[Ala(1H-tetrazol-5-yl)]TH[Dip]PCIK([PEG12-Palmitoyl])[β3hF][dK]C-NH2; disulfide 6-11)"
2,10 to 100 nM,"CC[C@H](C)[C@@H]1NC(=O)[C@@H](NC(=O)[C@@H]2CCCN2C(=O)[C@H](Cc2ccccc2)NC(=O)[C@H](Cc2c[nH]cn2)NC(=O)[C@@H](NC(=O)[C@H](Cc2nn[nH]n2)NC(=O)CC(C)C)[C@@H](C)O)CSSC[C@@H](C(=O)N[C@@H](CCCCN)C(N)=O)NC(=O)CNC(=O)[C@H](CCCCN)NC(=O)[C@H](CO)NC(=O)[C@H](CCCNC(=N)N)NC(=O)[C@@H]2CCCN2C(=O)[C@H](CCC(=O)O)NC(=O)[C@H](Cc2ccccc2)NC(=O)[C@H](CCCCNC(=O)COCCOCCNC(=O)COCCOCCNC(=O)CC[C@H](NC(=O)CCCCCCCCCCCCCCCCC(=O)O)C(=O)O)NC1=O [Compd 3, Isovaleric Acid-[Tet1]-T-H-F-P-[Cys]-I-[Lys(1PEG2_1PEG2_IsoGlu_C18_Diacid)]-F-E-P-R-S-K-G-[Cys]-K-NH2] (Isovaleryl-[Ala(1H-tetrazol-5-yl)]THFPCIK([AEEA-AEEA-γGlu-C18 diacid])FEPRSKGCK-NH2; disulfide 6-16)"
3,100 to 500 nM,"CC[C@H](C)[C@@H]1NC(=O)[C@@H](NC(=O)[C@@H]2CCCN2C(=O)[C@H](Cc2ccc(Cl)c(Cl)c2)NC(=O)[C@H](Cc2c[nH]cn2)NC(=O)[C@@H](NC(=O)[C@H](Cc2nn[nH]n2)NC(=O)CC(C)C)[C@@H](C)O)CSSC[C@@H](C(N)=O)NC(=O)[C@@H](CCCCN)NC(=O)C[C@H](Cc2ccccc2)NC(=O)[C@H](CCCCNC(=O)COCCOCCNC(=O)COCCOCCNC(=O)CC[C@H](NC(=O)CCCCCCCCCCCCCCCCC(=O)O)C(=O)O)NC1=O [Compd 25, Isovaleric Acid-[Tet1]-T-H-[Phe_34diCl]-P-[Cys]-I-[Lys(1PEG2_1PEG2_IsoGlu_C18_Diacid)]-[bhPhe]-[(D)Lys]-[Cys]-NH2] (Isovaleryl-[Ala(1H-tetrazol-5-yl)]TH[Phe(3,4-Cl2)]PCIK([AEEA-AEEA-γGlu-C18 diacid])[β3hF][dK]C-NH2; disulfide 6-11)"
4,10 to 100 nM,"CC[C@H](C)[C@@H]1NC(=O)[C@@H](NC(=O)[C@@H]2CCCN2C(=O)[C@@H](NC(=O)[C@H](Cc2cnc[nH]2)NC(=O)[C@@H](NC(=O)[C@H](CC2N=NN=N2)NC(=O)c2ccccc2)[C@@H](C)O)C(c2ccccc2)c2ccccc2)CSSC[C@@H](C(N)=O)NC(=O)[C@@H](CCCCN)NC(=O)C[C@H](Cc2ccccc2)NC(=O)[C@H](CCCCNC(=O)COCCOCCNC(=O)COCCOCCNC(=O)CC[C@H](NC(=O)CCCCCCCCCCCCCCCCC(=O)O)C(=O)O)NC1=O [Compd 42, Benzyl-[Tet1]-T-H-[Dpa]-P-[Cys]-I-[Lys(1PEG2_1PEG2_IsoGlu_C18_Diacid)]-[bhPhe]-[(D)Lys]-[Cys]-NH2]"
5,10 to 100 nM,"CCCCCCCCCCCCCCCC(=O)NCCOCCOCCOCCOCCOCCOCCOCCOCCOCCOCCOCCOCCC(=O)NCCCC[C@@H]1NC(=O)[C@H](Cc2ccccc2)NC(=O)[C@H](CCCCN)NC(=O)[C@H]([C@@H](C)CC)NC(=O)[C@@H](NC(=O)[C@@H]2CCCN2C(=O)[C@H](Cc2ccccc2)NC(=O)[C@H](Cc2c[nH]cn2)NC(=O)[C@@H](NC(=O)[C@H](CC(=O)O)NC(=O)CC(C)C)[C@@H](C)O)CSSC[C@@H](C(=O)N[C@@H](CCCCN)C(N)=O)NC(=O)CNC(=O)[C@H](CCCCN)NC(=O)[C@H](CO)NC(=O)[C@H](CCCNC(=N)N)NC(=O)[C@@H]2CCCN2C1=O [compound 1, reference compound]"

# Continued, molecule first:
row,SMILES,DC50
1,"CC[C@H](C)[C@@H]1NC(=O)[C@@H](NC(=O)[C@@H]2CCCN2C(=O)[C@H](Cc2cc(F)cc(F)c2)NC(=O)[C@H](Cc2c[nH]cn2)NC(=O)[C@@H](NC(=O)[C@H](Cc2nn[nH]n2)NC(=O)CC(C)C)[C@@H](C)O)CSSC[C@@H](C(N)=O)NC(=O)[C@@H](CCCCN)NC(=O)C[C@H](Cc2ccccc2)NC(=O)[C@H](CCCCNC(=O)COCCOCCNC(=O)COCCOCCNC(=O)CC[C@H](NC(=O)CCCCCCCCCCCCCCCCC(=O)O)C(=O)O)NC1=O [Compd 19, Isovaleric Acid-[Tet1]-T-H-[Phe_35diF]-P-[Cys]-I-[Lys(1PEG2_1PEG2_IsoGlu_C18_Diacid)]-[bhPhe]-[(D)Lys]-[Cys]-NH2] (Isovaleryl-[Ala(1H-tetrazol-5-yl)]TH[Phe(3,5-F2)]PCIK([AEEA-AEEA-γGlu-C18 diacid])[β3hF][dK]C-NH2; disulfide 6-11)",100 to 500 nM
2,"CC[C@H](C)[C@@H]1NC(=O)[C@@H](NC(=O)[C@@H]2CCCN2C(=O)[C@H](Cc2ccc(Cl)cc2Cl)NC(=O)[C@H](Cc2c[nH]cn2)NC(=O)[C@@H](NC(=O)[C@H](Cc2nn[nH]n2)NC(=O)CC(C)C)[C@@H](C)O)CSSC[C@@H](C(N)=O)NC(=O)[C@@H](CCCCN)NC(=O)C[C@H](Cc2ccccc2)NC(=O)[C@H](CCCCNC(=O)COCCOCCNC(=O)COCCOCCNC(=O)CC[C@H](NC(=O)CCCCCCCCCCCCCCCCC(=O)O)C(=O)O)NC1=O [Compd 26, Isovaleric Acid-[Tet1]-T-H-[Phe_24diCl]-P-[Cys]-I-[Lys(1PEG2_1PEG2_IsoGlu_C18_Diacid)]-[bhPhe]-[(D)Lys]-[Cys]-NH2] (Isovaleryl-[Ala(1H-tetrazol-5-yl)]TH[Phe(2,4-Cl2)]PCIK([AEEA-AEEA-γGlu-C18 diacid])[β3hF][dK]C-NH2; disulfide 6-11)",100 to 500 nM
3,"CC[C@H](C)[C@@H]1NC(=O)[C@@H](NC(=O)[C@@H]2CCCN2C(=O)[C@@H](NC(=O)[C@H](Cc2c[nH]cn2)NC(=O)[C@@H](NC(=O)[C@H](Cc2nn[nH]n2)NC(=O)CC(C)C)[C@@H](C)O)C(c2ccccc2)c2ccccc2)CSSC[C@@H](C(=O)O)NC(=O)C[C@H](Cc2ccccc2)NC(=O)[C@H](CCCCNC(=O)COCCOCCNC(=O)COCCOCCNC(=O)CC[C@H](NC(=O)CCCCCCCCCCCCCCCCC(=O)O)C(=O)O)NC1=O [Compd 37, Isovaleric Acid-[Tet1]-T-H-[Dpa]-P-[Cys]-I-[Lys(1PEG2_1PEG2_IsoGlu_C18_Diacid)]-[bhPhe]-[Cys]] (Isovaleryl-[Ala(1H-tetrazol-5-yl)]TH[Dip]PCIK([AEEA-AEEA-γGlu-C18 diacid])[β3hF]C-OH; disulfide 6-10; C-terminus assumed)",> 500 nM
4,"CC[C@H](C)[C@@H]1NC(=O)[C@@H](NC(=O)[C@@H]2CCCN2C(=O)[C@@H](NC(=O)[C@H](Cc2c[nH]cn2)NC(=O)[C@@H](NC(=O)[C@H](Cc2nn[nH]n2)NC(=O)CCCN)[C@@H](C)O)C(c2ccccc2)c2ccccc2)CSSC[C@@H](C(N)=O)NC(=O)[C@@H](CCCCN)NC(=O)C[C@H](Cc2ccccc2)NC(=O)[C@H](CCCCNC(=O)COCCOCCNC(=O)COCCOCCNC(=O)CC[C@H](NC(=O)CCCCCCCCCCCCCCCCC(=O)O)C(=O)O)NC1=O [Compd 38, Gaba-[Tet1]-T-H-[Dpa]-P-[Cys]-I-[Lys(1PEG2_1PEG2_IsoGlu_C18_Diacid)]-[bhPhe]-[(D)Lys]-[Cys]-NH2]",> 500 nM
5,"CC[C@H](C)[C@@H]1NC(=O)[C@@H](NC(=O)[C@@H]2CCCN2C(=O)[C@@H](NC(=O)[C@H](Cc2c[nH]cn2)NC(=O)[C@@H](NC(=O)[C@H](Cc2nn[nH]n2)NC(=O)CCCCN)[C@@H](C)O)C(c2ccccc2)c2ccccc2)CSSC[C@@H](C(N)=O)NC(=O)[C@@H](CCCCN)NC(=O)C[C@H](Cc2ccccc2)NC(=O)[C@H](CCCCNC(=O)COCCOCCNC(=O)COCCOCCNC(=O)CC[C@H](NC(=O)CCCCCCCCCCCCCCCCC(=O)O)C(=O)O)NC1=O [Compd 39, 5 AminoPentanoicAcid-[Tet1]-T-H-[Dpa]-P-[Cys]-I-[Lys(1PEG2_1PEG2_IsoGlu_C18_Diacid)]-[bhPhe]-[(D)Lys]-[Cys]-NH2]",> 500 nM

# Target: T1, ferroportin
# Experiment: T47D cell-based ferroportin internalization assay in presence of 0.5% mouse serum albumin (MSA), AF647-conjugated detection peptide, flow cytometry
# Design: a human breast carcinoma adherent cell line which endogenously expresses ferroportin; host or cells: T47D
# Conditions: T47D cells, 1 hr incubation
# Method: The potency of the peptides in causing ferroportin internalization was evaluated in a T47D cell-based assay. […] In this internalization assay, the potency of the test peptides was evaluated in presence of serum albumin which is the main protein component in the blood. T47D cells were maintained in RPMI media (containing required amount of fetal bovine serum) and regularly sub-cultured. In preparation for the assay, the cells were seeded in 96-well plates at a density of 80-100 k cells per well in 100 ul volume and allowed to rest overnight. On the next day, test peptides were first prepared in dilution series (10-point series, starting concentration of ˜5 μM, typically 3-4×fold dilution steps), all with 0.5% mouse serum albumin (MSA purified from mouse serum; Sigma, A3139). The test peptide dilution series were allowed to incubate at room temperature for 30 min. Then the media was aspirated from the 96-well cell plate and test peptide dilution series were added. After 1 hr incubation, the media with test peptides was aspirated out and AF647-conjugated detection peptide was added at fixed concentration of 200 nM. The AF647-conjugated detection peptide was previously verified to bind to ferroportin and cause its internalization. The cells were washed again after a 2 hr incubation in preparation for flow cytometry analysis. The Median Fluorescence Intensity (MFI) of the AF647-positive population was measured (after removing dead cells and non-singlets from the analysis). The MFI values were used to generate a dose-response curve and obtain IC50 potencies for the test peptides. The IC50 potencies were calculated by using 4-parameter non-linear fitting function in Graphpad Prism (Table 2A).
row,IC50,SMILES
1,1 to 10 nM,"CCCCCCCCCCCCCCCC(=O)NCCOCCOCCOCCOCCOCCOCCOCCOCCOCCOCCOCCOCCC(=O)NCCCC[C@@H]1NC(=O)[C@H]([C@@H](C)CC)NC(=O)[C@@H](NC(=O)[C@@H]2CCCN2C(=O)[C@@H](NC(=O)[C@H](Cc2c[nH]cn2)NC(=O)[C@@H](NC(=O)[C@H](Cc2nn[nH]n2)NC(=O)CC(C)C)[C@@H](C)O)C(c2ccccc2)c2ccccc2)CSSC[C@@H](C(N)=O)NC(=O)[C@@H](CCCCN)NC(=O)C[C@H](Cc2ccccc2)NC1=O [Compd 1, Isovaleric Acid-[Tet1]-T-H-[Dpa]-P-[Cys]-I-[Lys(PEG12_Palm)]-[bhPhe]-[(D)Lys]-[Cys]-NH2] (Isovaleryl-[Ala(1H-tetrazol-5-yl)]TH[Dip]PCIK([PEG12-Palmitoyl])[β3hF][dK]C-NH2; disulfide 6-11)"
